Laboratory results reported in patent US20060134719A1, “Novel serine protease” (priority 2002, published 2006).
*: point of attachment. AMC = Cc1cc(=O)oc2cc(N*)ccc12; Boc = CC(C)(C)OC(=O)*; OBn = c1ccc(CO*)cc1

What follows are substances tested against T1, purified protein solution (signal-FLAG-ARS-extracellular protein) (Homo sapiens, UniProt Q7Z410, INS90FVSSFQKTELEASCVGCSVLNYRDGNSSVLVHFQ) (assay: Enzyme activity of purified recombinant protein using synthetic peptides). Details: substrate 200 μM or 400 μM, ammonium hydrogen carbonate buffer, 37° C. for one hour; versus buffer control.
T1 construct: made in house; host or cells: HEK293-EBNA
T1 sequence (Q7Z410 with tags, fused parts or gaps INS90FVSSFQKTELEASCVGCSVLNYRDGNSSVLVHFQ): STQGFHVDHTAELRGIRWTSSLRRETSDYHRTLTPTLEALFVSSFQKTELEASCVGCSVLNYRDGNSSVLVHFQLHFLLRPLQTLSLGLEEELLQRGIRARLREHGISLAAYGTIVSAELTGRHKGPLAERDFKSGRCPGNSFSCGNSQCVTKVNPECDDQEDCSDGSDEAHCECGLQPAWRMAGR
T1 sequence (Q7Z410 with tags, fused parts or gaps): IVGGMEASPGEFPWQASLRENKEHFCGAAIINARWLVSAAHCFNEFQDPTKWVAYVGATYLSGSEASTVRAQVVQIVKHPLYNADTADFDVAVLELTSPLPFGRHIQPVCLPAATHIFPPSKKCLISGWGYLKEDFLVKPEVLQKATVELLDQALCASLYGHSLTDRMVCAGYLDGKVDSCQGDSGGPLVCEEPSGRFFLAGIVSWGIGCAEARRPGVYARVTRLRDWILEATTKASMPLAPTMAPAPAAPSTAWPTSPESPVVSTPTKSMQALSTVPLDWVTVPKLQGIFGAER
Assay type: biochemical
Description: Using a cell expressing the signal-FLAG-ARS-extracellular protein, a recombinant protein secreted into the liquid culture of the cell was extracted and purified. Specifically, the transfected HEK293EBNA cells were incubated by the same method as in Example 7 to about 80% confluence, from which the culture medium was then removed. Instead, a culture medium containing 4% serum was added, for further incubation under conditions of 37° C. and a carbon dioxide concentration of 5% for another 4 days. The culture supernatant was recovered 4 days later; filtered through a 0.22-μm filter (Zartor); and adsorbed on an ANTI-FLAG M2-AGAROSE AFFINITY GEL (Sigma) column equilibrated with TBS buffer by a routine method. Subsequently, about 50 ml of the TBS buffer was used for washing the column. Then, 6 ml of […] glycine hydrochloride solution of pH 2.2 was passed through the column to obtain each 1 ml fraction. To the separated fractions, 100 μl of 1 M Tris-HCl of pH 8 was immediately added to adjust the pH. The individual fractions thus obtained were confirmed by Western blotting using an antibody against the FLAG tag added to the N terminus (mouse anti-FLAG monoclonal antibody M2; Sigma). Specifically, the eluted fractions were electrophoresed on SDS/4% to 20% acrylamide gel (Daiichi Pure Chemicals Co., Ltd.) (under reducing conditions) and then transferred on PVDF membrane (Millipore) using a blotting apparatus. After adding Block Ace (DAINIPPON PHARMACEUTICAL CO., LTD.) for blocking to the transferred PVDF membrane, a biotinylated mouse anti-FLAG monoclonal antibody (M2; Sigma) and horseradish peroxidase-labeled streptoavidin (Amersham Pharmacia) were sequentially reacted. After reaction, it was confirmed that which eluted fractions contained the protein, using ECL Western blotting detection system (Amersham Pharmacia).
Using a synthetic peptides which have the C terminus labeled wit MCA (4-methyl-coumaryl-7-amide) by the same method as in Example 8, the cleavage activity of the enzyme purified in Example 10 was detected. Unless otherwise described, the method described in a paper (Yasuoka, S. et al., Am. J. Respir. Cell Mol Biol., Vol. 16, 300-308, 1997) was used. Specifically, using a synthetic peptides (Peptide Institute, Inc.) which have the C terminus labeled with MCA as substrates, the substrates were diluted with ammonium hydrogen carbonate buffer to become a final concentration of 200 μM or 400 μM in a 96-well plate. After the purified protein solution obtained in Example 10 or the ammonium hydrogen carbonate buffer as a control was added to the substrate solutions, the resulting mixtures were incubated at 37° C. for one hour. Subsequently, the fluorescence of AMC (7-amino-4-methyl-coumarin) released from the synthetic peptide by enzymatic cleavage was measured at a wavelength of 460 nm for measurement, using an excitation wavelength of 390 nm with a fluorescent plate reader (SAFIRE manufactured by TECAN). In FIG. 1, the open bar expresses buffer control, while the solid bar expresses the case of using purified protein solution. The first bar represents the case of using Boc-Glu(OBzl)-Ala-Arg-MCA as a substrate; the second bar represents the case of using Boc-Phe-Ser-Arg-MCA as a substrate; the third bar represents the case of using Boc-Leu-Ser-Thr-Arg-MCA as a substrate; the fourth bar represents the case of using Boc-Gln-Arg-Arg-MCA as a substrate; the fifth bar represents the case of using Suc-Ala-Ala-Pro-Phe-MCA as a substrate; the sixth bar represents the case of using Suc-Ala-Pro-Ala-MCA as a substrate; the seventh bar represents the case of using Boc-Glu-Lys-Lys-MCA as a substrate; the eighth bar represents the case of using Boc-Leu-Lys-Arg-MCA as a substrate; the ninth bar represents the case of using Boc-Leu-Gly-Arg-MCA as a substrate; and the tenth bar represents the case of using Boc-Asp(OBzl)-Pro-Arg-MCA as a substrate.

Cleavage of synthetic peptide by purified protein solution (fluorescence of released AMC), showed the cleavage activities:
Boc-Phe-Ser-Arg-{AMC}
Boc-Glu(OBn)-Ala-Arg-{AMC}
Boc-Gln-Arg-Arg-{AMC}
